Measured values as given in patent US9808470B2, “Estrogenic components for use in the treatment of neurological disorders” (UNIVERSITE DE LIEGE, priority 2012, dated 2017).

Assays:
Format in all cases: in vivo
[1] = Ex.4 therapeutic HIE rat model: brain weight; conditions: PND14
Procedure: Animals were then perfused transcardially with 0.9% saline solution at 4° C., and then with 4% paraformaldehyde in a 0.1-mol/L phosphate-buffered saline solution (pH 7.4) at 4° C. The brains were quickly isolated, weighed and immersed in the same fixative solution at 4° C. for 24 hours, dehydrated with a graded series of ethanol and xylene, and embedded in paraffin.
(§1) To study the therapeutic effect of estetrol, newborn rat pups were assigned to one of the following 6 groups at postnatal day 7: sham group (n=29), vehicle group (n=20), 1 mg/kg E4 group (n=16), 5 mg/kg E4 group (n=19), 10 mg/kg day E4 (n=17) and 50 mg/kg day E4 group (n=15). At postnatal day 7 animals were anesthetized with isoflurane (induction, 3.0%; maintenance, 1.5%), and the rat pups from vehicle and E4 groups passed through surgery encompassing left common carotid artery double ligation and cut. After surgery, the pups were returned to their dams and allowed to recover for 1 hour. The pups were then placed in a humidified hypoxic in vivo cabinet (CoyLab). Hypoxia was produced by the inhalation of 11%-8% of oxygen balanced by nitrogen at decreased concentration of oxygen for 20 minutes, followed by inhalation of 8% oxygen and 92% nitrogen at constant concentration for 35 minutes. All the manipulations were performed at 37° C.
(§2) Upon retrieval from the hypoxia chamber the rat pups were injected intraperitoneally either by vehicle (vehicle group) or by E4 (1 mg/kg, 5 mg/kg, 10 mg/kg or 50 mg/kg) in accordance to the group assignment. The animals from the sham group went through similar procedures but proceeded neither left common carotid artery ligation and cut followed by hypoxia nor vehicle or estetrol administration. Rat pups recovered with their dams until being sacrificed at postnatal day 14.

[2] = tested on: doublecortin (DCX); test: Ex.4 therapeutic HIE rat model: doublecortin staining
Procedure: The sections were heated in 10 mmol/L citrate buffer (pH 6.0) at 100° C. for 10 minutes. Endogenous peroxidase activity was blocked with 3% hydrogen peroxide for 10 minutes and after a second blocking with 5% normal goat serum, the sections were incubated with anti-doublecortin (DCX) antibody, diluted 1:1000 (rabbit polyclonal antibody; Abcam, Cambridge, UK) and anti-vascular endothelial growth factor (VEGF) antibody, diluted 1:100 (mouse monoclonal antibody; Abcam, Cambridge, UK) overnight at 4° C. After rinsing, Alexa Fluor® goat anti-rabbit, diluted 1:1000 and Alexa Fluor® goat anti-mouse, diluted 1:1000 (Invitrogen Inc., Ghent, Belgium) were added and sections were incubated 1 h at room temperature. Mounting medium containing 4′,6-diamidino-2-phenylindole (DAPI) for fluorescent studies was used (Vector Laboratories). Samples were analyzed with the aid of a microscope (Olympus Vanox AHBT3, Olympus), and the ImageJ software (NIH). The percentage of positively stained cells was quantified as a sum of positively stained either DCX or VEGF cells divided by the total number of DAPI positive cells expressed in percentage.
as §1, §2

[3] = tested on: Myelin Basic Protein (MBP); test: Ex.7 therapeutic HIE rat model: myelin basic protein staining; conditions: all the E4 treated groups, vs vehicle
Procedure: FIG. 22. Myelin Basic Protein (MBP) staining of brain coronal sections in rat pups that were treated with estetrol. Brains were removed upon sacrifice at postnatal day 14 and paraformaldehyde-fixed and paraffin-embedded brain samples were coronally sectioned at the hippocampus region. The sections were processed for detection of white matter damage through immunohistological staining with anti-MBP antibody. (A-F) MBP staining of brain coronal sections (scale bar: 2 mm) is shown. (G-L) MBP staining of cingulum of the left hemisphere is (scale bar: 2 mm) is shown. (M) The ratio of the MBP positive areas OD ratio was calculated as the MBP positive area OD of the ipsilateral hemisphere divided by the MBP positive area OD of the contralateral hemisphere. 10 samples from each study group were analyzed. The ratio of the MBP positive area OD in the Sham group was considered by default as 1.0.
The sections were processed for immunohistochemical detection of neuronal myelin basic protein disruption. For antigen retrieval, the sections were heated in 10 mmol/L citrate buffer (pH 6.0) at 100° C. for 10 min. […] 10 samples from each study group of both study designs were analyzed with the aid of an image scanner (Nanozoomer Virtual Microscopy, Hamamatsu, Tokyo, Japan) and ImageJ software (NIH, USA). The MBP positive areas optical densities in the ipsilateral and contralateral hemispheres were measured. […]

## C[C@]12CC[C@@H]3c4ccc(O)cc4CC[C@H]3[C@@H]1[C@@H](O)[C@@H](O)[C@@H]2O [E4, 1,3,5(10)-estratrien-3,15α,16α,17β-tetrol]
[1]; 1 mg/kg E4 single ip dose after HI
  brain weight: 1.099 ± 0.037 g
[1]; 5 mg/kg E4 single ip dose after HI
  brain weight: 1.06 ± 0.035 g
[1]; 10 mg/kg E4 single ip dose after HI
  brain weight: 1.12 ± 0.33 g
[1]; 50 mg/kg E4 single ip dose after HI
  brain weight: 1.163 ± 0.025 g
[2]; 5 mg/kg E4 single ip dose after HI, cortex
  percentage of DCX positively stained cells: 45.2±3.339%
[2]; 10 mg/kg E4 single ip dose after HI, CA1
  percentage of DCX positively stained cells: 37.1±3.84
[2]; 10 mg/kg E4 single ip dose after HI, CA2/CA3
  percentage of DCX positively stained cells: 42.5±5.986%
[2]; 10 mg/kg E4 single ip dose after HI, cortex
  percentage of DCX positively stained cells: 49.4±4.949%
[2]; 50 mg/kg E4 single ip dose after HI, CA1
  percentage of DCX positively stained cells: 37.3±4.784%
[2]; 50 mg/kg E4 single ip dose after HI, cortex
  percentage of DCX positively stained cells: 49.6±3.11%
[2]; E4 1, 5, 10, 50 mg/kg single ip dose after HI, DG, among study groups
  DCX staining: neither DCX nor VEGF staining was significantly different
[3]
  ratio of the MBP-positive area OD: significantly higher
